Tested on: AMPK
Experiment: AMPK activating activity in HK-2 cells treated with tunicamycin, Western blot
Assay type: cell-based, human
Settings: tunicamycin 5 μg/ml with or without sephin1 1 μM, 24 hours, compared to untreated cells
Experimental: The HK-2 cell line is a proximal tubular cell line derived from normal kidney immortalized by transduction with human papilloma virus 16 (HPV-16) E6/E7 genes.
HK-2 cells were seeded in a six well plate at a cell density of 7×10^4 cells per well 24 hours prior to the start of the study (T−24). […] 24 hours later (at T24) cells were recovered and protein was analyzed by Western blot analysis.

tunicamycin was tested, and the “AMPK levels (AMPK/GAPDH)” value was “reduced”.
